Assay results as given in patent US20090221829A1 (priority 2005, published 2009).
Where a name gives a salt, the structure may show the parent alone.

Key:
[1] = system: Candida albicans(KCTC 1940), Aspergillus niger (ATCC 9642) and Saccharomyces cerevisiae; test: Relative antifungal activity by agar dilution method (vs Miconazole); type: cell-based;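 further: scores 5 to 7 mean a lower fungicidal concentration than Miconazole so higher is more potent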
Excerpt: Novel compounds represented by the above chemical formula (I), and the relative activities in accordance with the agar dilution method in Sabouraud dextrose agar media, Czapek agar media and Yeast Extract-Peptone-Dextrose agar media for Candida albicans(KCTC 1940), Aspergillus niger (ATCC 9642) and Saccharomyces cerevisiae are described respectively in following Table 1.

various kinds of Candida = test: MIC (Minimal Inhibitory Concentration) data; type: cell-based; conditions: unit assumed
[2] = agar dilution method, fungicidal concentration relative to control drug Miconazole (=4)

| Structure (SMILES) | melting point | Relative Activity [1, 2] | further results |
| --- | --- | --- | --- |
| CCCCc1ccc(C2=[N+](Cc3ccccc3F)CCc3cc4c(cc32)OCO4)cc1.[Cl-] | 101 °C | – | – |
| CC(C)(C)c1ccc(C2=[N+](Cc3ccccc3F)CCc3cc4c(cc32)OCO4)cc1.[Cl-] | 148 °C | – | – |
| CC(C)C1=[N+](Cc2ccccc2F)CCc2cc3c(cc21)OCO3.[Cl-] | 114 °C | – | – |
| CCCCCCCC1=[N+](Cc2ccccc2F)CCc2cc3c(cc21)OCO3.[Cl-] | 94 °C | – | – |
| COc1cc2c(cc1OC)C(CCc1ccc(C(C)(C)C)cc1)=[N+](Cc1ccccc1F)CC2 (as salt: chloride) [Compound No. 124, 1-(2-(4-t-butylphenyl))ethyl-2-(2-fluorophenyl)methyl-3,4-dihydro-6,7-dimethoxyisoquinolinium chloride] | 103 °C | – | – |
| COc1ccc(C[N+]2=C(CCc3ccc(C(C)(C)C)cc3)c3cc(OC)c(OC)cc3CC2)cc1OC (as salt: chloride) [Compound No. 125, 1-(2-(4-t-butylphenyl))ethyl-2-(3,4-dimethoxyphenyl)methyl-3,4-dihydro-6,7-dimethoxyisoquinolinium chloride] | 100 °C | – | – |
| COc1cc2c(cc1OC)C(CCc1ccc(C(C)(C)C)cc1)=[N+](Cc1cccc(OC)c1OCc1ccc(C(F)(F)F)cc1)CC2 (as salt: chloride) [Compound No. 132, 1-(2-(4-t-butylphenyl))ethyl-2-(2-(4-trifluoromethylbenzyloxy)-3-methoxyphenyl)methyl-3,4-dihydro-6,7-dimethoxy isoquinolinium chloride] | 60 °C | – | – |
| COc1cc2c(cc1OC)C(CCc1ccc(C(C)(C)C)cc1)=[N+](Cc1cccc(OC)c1OCc1c(F)cccc1Cl)CC2 (as salt: chloride) [Compound No. 133, 1-(2-(4-t-butylphenyl))ethyl-2-(2-(2-chloro-6-fluorobenzyloxy)-3-methoxyphenyl)methyl-3,4-dihydro-6,7-dimethoxyisoquinolinium chloride] | 63 °C | – | – |
| COc1cc2c(cc1OC)C(CCc1ccc(C(C)(C)C)cc1)=[N+](Cc1cccc(OC)c1OCc1c(F)c(F)c(C(F)(F)F)c(F)c1F)CC2 (as salt: chloride) [Compound No. 135, 1-(2-(4-t-butylphenyl))ethyl-2-(2-(2,3,5,6-tetrafluoro-4-trifluoromethylbenzyloxy)-3-methoxyphenyl)methyl-3,4-dihydro-6,7-dimethoxy isoquinolinium chloride] | 140 °C | – | – |
| COc1cc2cc[n+](Cc3cccc(OC)c3OCc3ccc(C(F)(F)F)cc3)c(CCc3ccc(C(C)(C)C)cc3)c2cc1OC (as salt: chloride) [Compound No. 149, 1-(2-(4-t-butylphenyl))ethyl-2-(2-(4-trifluoromethylbenzyloxy)-3-methoxyphenyl)methyl-6,7-dimethoxyisoquinolinium chloride] | 110 °C | – | – |
| CCCCCCCC1=[N+](Cc2ccccc2F)CCc2cc(OC)c(OC)cc21.[Cl-] [Compound No. 11, 1-n-heptyl-2-(2-fluorophenyl)methyl-3,4-dihydro-6,7-dimethoxyisoquinolinium chloride] | 112 °C | 4 | – |
| COc1cc2c(cc1OC)C(c1cc(F)cc(F)c1)=[N+](Cc1ccccc1F)CC2.[Cl-] [Compound No. 18, 1-(3,5-difluorophenyl)-2-(2-fluorophenyl)methyl-3,4-dihydro-6,7-dimethoxyisoquinolinium chloride] | 118 °C | 6 | – |
| COc1cc2c(cc1OC)C(c1ccc(C(C)(C)C)cc1)=[N+](Cc1ccccc1F)CC2.[Cl-] [Compound No. 22, 1-(4-t-butylphenyl)-2-(2-fluorophenyl)methyl-3,4-dihydro-6,7-dimethoxyisoquinolinium chloride] | 125 °C | 6 | – |
| COc1cc2c(cc1OC)C(Cc1ccc(Cl)cc1Cl)=[N+](Cc1ccccc1F)CC2.[Cl-] [Compound No. 25, 1-(2,4-dichlorophenyl)methyl-2-(2-fluorophenyl)methyl-3,4-dihydro-6,7-dimethoxyisoquinolinium chloride] | 182 °C | 6 | – |
| COc1cc2c(cc1OC)C(C)=[N+](Cc1ccc(F)c(F)c1)CC2.[Cl-] [Compound No. 39, 1-methyl-2-(3,4-difluorophenyl)methyl-3,4-dihydro-6,7-dimethoxyisoquinolinium chloride] | 88 °C | 6 | – |
| COc1cc2c(cc1OC)C(c1ccc(C(C)(C)C)cc1)=[N+](Cc1ccc(F)c(F)c1)CC2.[Cl-] [Compound No. 48, 1-(4-t-butylphenyl)-2-(3,4-difluorophenyl)methyl-3,4-dihydro-6,7-dimethoxyisoquinolinium chloride] | 97 °C | 6 | – |
| COc1cc2c(cc1OC)C(c1ccc(C(C)(C)C)cc1)=[N+](Cc1ccccc1Cl)CC2.[Cl-] [Compound No. 55, 1-(4-t-butylphenyl)-2-(2-chlorophenyl)methyl-3,4-dihydro-6,7-dimethoxyisoquinolinium chloride] | 117 °C | 6 | – |
| CCCCCC1=[N+](Cc2c(F)cccc2F)CCc2cc(OC)c(OC)cc21.[Cl-] [Compound No. 57, 1-n-pentyl-2-(2,6-difluorophenyl)methyl-3,4-dihydro-6,7-dimethoxyisoquinolinium chloride] | 196 °C | 6 | – |
| CCCCCCCCCCCCCCCC1=[N+](Cc2c(F)cccc2F)CCc2cc(OC)c(OC)cc21.[Cl-] [Compound No. 60, 1-n-pentadecyl-2-(2,6-difluorophenyl)methyl-3,4-dihydro-6,7-dimethoxyisoquinolinium chloride] | 104 °C | 1 | – |
| COc1cc2c(cc1OC)C(c1ccccc1F)=[N+](Cc1c(F)cccc1F)CC2.[Cl-] [Compound No. 62, 1-(2-fluorophenyl)-2-(2,6-difluorophenyl)methyl-3,4-dihydro-6,7-dimethoxyisoquinolinium chloride] | 79 °C | 6 | – |
| COc1ccc2c(c1)CC[N+](Cc1ccccc1F)=C2C(C)C.[Cl-] [Compound No. 83, 1-i-propyl-2-(2-fluorophenyl)methyl-3,4-dihydro-6-methoxyisoquinolinium chloride] | 102 °C | 6 | – |
| CC1=[N+](Cc2ccc(F)c(F)c2)CCc2cc3c(cc21)OCO3.[Cl-] [Compound No. 111, 1-methyl-2-(3,4-difluorophenyl)methyl-3,4-dihydro-6,7-methylenedioxyisoquinolinium chloride] | 88 °C | 6 | – |
| CCCCCCC1=[N+](Cc2ccc(C(C)(C)C)cc2)CCc2cc(OC)c(OC)cc21.[Cl-] [Compound No. 126, 1-hexyl-2-(4-t-butylphenyl)methyl-3,4-dihydro-6,7-dimethoxy isoquinolinium chloride] | 34 °C | 4 | – |
| CCCCCCCCCCCCCCCC1=[N+](Cc2ccc(C(C)(C)C)cc2)CCc2cc(OC)c(OC)cc21.[Cl-] [Compound No. 128, 1-pentadecyl-2-(4-t-butylphenyl)methyl-3,4-dihydro-6,7-dimethoxy isoquinolinium chloride] | 166 °C | 1 | – |
| COc1cc2c(cc1OC)C(CCc1ccc(C(C)(C)C)cc1)=[N+](Cc1cccc(OC)c1OCc1ccc(C(F)(F)F)cc1)CC2 [Compound No. 132, 1-(2-(4-t-butylphenyl))ethyl-2-(2-(4-trifluoromethylbenzyloxy)-3-methoxyphenyl)methyl-3,4-dihydro-6,7-dimethoxy isoquinolinium chloride] | – | 1 | MIC (various kinds of Candida; C. albicans ATCC 11651): 3.12 µg/mL; MIC (various kinds of Candida; C. albicans ATCC 28838): 1.56 µg/mL; MIC (various kinds of Candida; C. albicans IFO 1385): 6.25 µg/mL; MIC (various kinds of Candida; C. albicans OY-003): 3.12 µg/mL; MIC (various kinds of Candida; C. albicans OY-019): 3.12 µg/mL; MIC (various kinds of Candida; C. albicans U.K): 1.56 µg/mL; MIC (various kinds of Candida; C. glabrata): 12.5 µg/mL; MIC (various kinds of Candida; C. glulliermondi): 3.12 µg/mL; MIC (various kinds of Candida; C. krusei (KCTC7273)): 1.56 µg/mL; MIC (various kinds of Candida; C. parapsilosis): 6.5 µg/mL |
| COc1cc2c(cc1OC)C(CCc1ccc(C(C)(C)C)cc1)=[N+](Cc1cccc(OC)c1OCc1c(F)c(F)c(C(F)(F)F)c(F)c1F)CC2 [Compound No. 135, 1-(2-(4-t-butylphenyl))ethyl-2-(2-(2,3,5,6-tetrafluoro-4-trifluoromethylbenzyloxy)-3-methoxyphenyl)methyl-3,4-dihydro-6,7-dimethoxy isoquinolinium chloride] | – | 2 | MIC (various kinds of Candida; C. albicans ATCC 11651): 6.25 µg/mL; MIC (various kinds of Candida; C. albicans ATCC 28838): 3.12 µg/mL; MIC (various kinds of Candida; C. albicans IFO 1385): 6.25 µg/mL; MIC (various kinds of Candida; C. albicans OY-003): 3.12 µg/mL; MIC (various kinds of Candida; C. albicans OY-019): 6.25 µg/mL; MIC (various kinds of Candida; C. albicans U.K): 6.25 µg/mL; MIC (various kinds of Candida; C. glabrata): 12.5 µg/mL; MIC (various kinds of Candida; C. glulliermondi): 3.12 µg/mL; MIC (various kinds of Candida; C. krusei (KCTC7273)): 1.56 µg/mL; MIC (various kinds of Candida; C. parapsilosis): 12.5 µg/mL |
| COc1cc2c(cc1OC)C(C)=[N+](Cc1cccc(OC)c1OCc1ccc(C(C)(C)C)cc1)CC2.[Cl-] [Compound No. 138, 1-methyl-2-(2-(4-t-butylbenzyloxy)-3-methoxyphenyl)methyl-3,4-dihydro-6,7-dimethoxy isoquinolinium chloride] | 105 °C | 6 | – |
| COc1cc2cc[n+](Cc3cccc(OC)c3OCc3ccc(C(F)(F)F)cc3)c(CCc3ccc(C(C)(C)C)cc3)c2cc1OC [Compound No. 149, 1-(2-(4-t-butylphenyl))ethyl-2-(2-(4-trifluoromethylbenzyloxy)-3-methoxyphenyl)methyl-6,7-dimethoxyisoquinolinium chloride] | – | – | MIC (various kinds of Candida; C. albicans ATCC 11651): 0.78 µg/mL; MIC (various kinds of Candida; C. albicans ATCC 28838): 1.56 µg/mL; MIC (various kinds of Candida; C. albicans IFO 1385): 3.12 µg/mL; MIC (various kinds of Candida; C. albicans OY-003): 0.78 µg/mL; MIC (various kinds of Candida; C. albicans OY-019): 1.56 µg/mL; MIC (various kinds of Candida; C. albicans U.K): 0.78 µg/mL; MIC (various kinds of Candida; C. albicnas ATCC 10231): 0.78 µg/mL; MIC (various kinds of Candida; C. glabrata): 6.25 µg/mL; MIC (various kinds of Candida; C. glulliermondi): 1.56 µg/mL; MIC (various kinds of Candida; C. krusei (KCTC7273)): 1.56 µg/mL; MIC (various kinds of Candida; C. parapsilosis): 6.25 µg/mL; Relative Activity ([1]; antifungal activity relative to Miconazole, agar dilution): 1 |
